Laboratory results: patent US9957252B2, “Metalloenzyme inhibitor compounds as fungicides” (Dow AgroSciences LLC, priority 2014, dated 2018)
Like-named read-outs stand apart in the source and are kept apart here.

Assays:
Type in all cases: in vivo, Mycosphaerella graminicola on wheat plants (variety Yuma)
[1] = tested on: standard laboratory SEPTTR isolate (SI SEPTTR); Mycosphaerella graminicola; Anamorph: Septoria tritici; assay: Leaf blotch of wheat fungicidal activity, Type B assay (10% EC formulation in 0.1% Trycol 5941, track sprayer 200 L/ha), standard laboratory isolate; conditions: Zymoseptoria tritici, 72 h, wheat seedlings (Yuma)
Experimental: (§1) Evaluation of Fungicidal Activity: Leaf Blotch of Wheat (Mycosphaerella graminicola; Anamorph: Septoria tritici; Bayer code SEPTTR):
(§2) For Type A assays, technical grades of the experimental fungicides in Table 4 below were dissolved in acetone, and then mixed with nine volumes of water containing 110 ppm Triton X-100. The fungicide solutions were applied onto wheat seedlings using an automated booth sprayer. For Type B assays, emulsifiable concentrate (EC) formulations of technical grades of experimental fungicides in Table 4 below were prepared at 10% (w/v), and then mixed with 150 volumes of 0.1% Trycol 5941. The fungicide solutions were applied onto wheat seedlings using an automated track sprayer at 200 L/ha. All sprayed plants were allowed to air dry prior to further handling.
(§3) Wheat plants (variety Yuma) were grown from seed in a greenhouse in 50% mineral soil/50% soil-less Metro mix until the first leaf was fully emerged, with 7-10 seedlings per pot. Prior to or after application of experimental fungicides, plants were inoculated either with spores of a standard laboratory SEPTTR isolate (SI SEPTTR) or with spores from a SEPTTR field isolate collected from Wellsbourne, England in 2012 (FI SEPTTR). After inoculation, the plants were kept for 3 days at 20° C. in 100% relative humidity (one day in a dark dew chamber followed by two days in a lighted dew chamber). Plants were then transferred to a 20° C. greenhouse for disease development. When disease symptoms were fully expressed on untreated plants, infection levels on treated plants were assessed on a scale of 0 to 100 percent disease severity. Percent disease control was calculated using the ratio of disease severity on treated plants relative to untreated plants.

[2] = tested on: standard laboratory SEPTTR isolate (SI SEPTTR); Mycosphaerella graminicola; Anamorph: Septoria tritici; assay: Leaf blotch of wheat fungicidal activity, Type A assay (technical grade in acetone/water with Triton X-100, booth sprayer), standard laboratory isolate; conditions: Zymoseptoria tritici, 24 h, 1 Day Protectant, wheat seedlings (Yuma), read-out: Disease control, SI SEPTTR Type A Assay (50 ppm) 1DP
Experimental: as §1, §2, §3

[3] = Leaf blotch of wheat fungicidal activity, Type B assay (10% EC formulation in 0.1% Trycol 5941, track sprayer 200 L/ha), field isolate; conditions: Zymoseptoria tritici, 72 h, field isolate (Wellsbourne, England 2012), wheat seedlings (Yuma)
Experimental: as §1, §2, §3

[4] = 3 Day Curative, read-out: Disease control, SI SEPTTR Type B Assay (100 g/ha) 3DC
[5] = 3 Day Protectant, read-out: Disease control, SI SEPTTR Type B Assay (100 g/ha) 3DP
[6] = 3 Day Curative, read-out: Disease control, FI SEPTTR Type B Assay (100 g/ha) 3DC
[7] = 3 Day Protectant, read-out: Disease control, FI SEPTTR Type B Assay (100 g/ha) 3DP

SMILES | pest or weed control at 100 g/ha [1, 4] | pest or weed control at 100 g/ha [1, 5] | pest or weed control at 50 ppm [2] | pest or weed control at 100 g/ha [3, 6] | pest or weed control at 100 g/ha [3, 7]
CC(C)(C)C(O)(c1cncnc1)c1ccc(-c2ccc(C#N)cc2)cc1Cl (stereo not drawn) [Compound 9] | 80 to 100% | 60 to 79% | 80 to 100% | 80 to 100% | 80 to 100%
CC(C)(C)C(O)(c1ccc(-c2cccc(OC(F)(F)F)c2)cc1)c1cncnc1 (stereo not drawn) [Compound 11] | 60 to 79% | 80 to 100% | 80 to 100% | 60 to 79% | 60 to 79%
CC(C)(C)C(O)(c1cncnc1)c1ccc(-c2ccc(OC(F)(F)F)cc2)cc1Cl (stereo not drawn) [Compound 8] | 80 to 100% | 80 to 100% | 80 to 100% | 80 to 100% | 80 to 100%
CC(C)(C)C(O)(c1ccc(-c2ccc(OC(F)F)cc2)cc1)c1cncnc1 (stereo not drawn) [Compound 2] | 80 to 100% | 80 to 100% | 80 to 100% | 80 to 100% | 80 to 100%
CC(C)(C)C(O)(c1ccc(-c2ccc(C3(C#N)CC3)cc2)cc1)c1cncnc1 (stereo not drawn) [Compound 32] | 80 to 100% | 80 to 100% | 80 to 100% | 60 to 79% | 80 to 100%
CC(C)(C)C(O)(c1cncnc1)c1ccc(-c2ccc(OCC(F)(F)F)cc2)cc1Cl (stereo not drawn) [Compound 25] | 80 to 100% | 60 to 79% | 80 to 100% | 80 to 100% | 80 to 100%
CC(C)(C)C(O)(c1cncnc1)c1ccc(-c2ccc(C(F)(F)F)nc2)cc1F (stereo not drawn) [Compound 24] | 80 to 100% | 80 to 100% |  | 80 to 100% | 80 to 100%
CC(C)(C)C(O)(c1cncnc1)c1ccc(-c2ccc(OC(F)F)cc2)cc1Cl (stereo not drawn) [Compound 10] | 80 to 100% | 80 to 100% | 80 to 100% | 80 to 100% | 60 to 79%
Cc1cc(-c2ccc(C(C)(C)C)cc2)ccc1C(O)(c1cncnc1)C(C)(C)C (stereo not drawn) [Compound 39] |  |  | 80 to 100% |  | 
CC(C)(C)C(O)(c1cncnc1)c1ccc(-c2ccc(OC(F)(F)F)cc2)cc1F (stereo not drawn) [Compound 15] | 80 to 100% | 80 to 100% |  | 60 to 79% | 80 to 100%
CC(C)(C)C(O)(c1ccc(-c2ccc(OCC(F)(F)F)cc2)cc1)c1cncnc1 (stereo not drawn) [Compound 14] | 80 to 100% | 80 to 100% | 80 to 100% | 80 to 100% | 60 to 79%
COc1cc(-c2ccc(SC(F)(F)F)cc2)ccc1C(O)(c1cncnc1)C(C)(C)C (stereo not drawn) [Compound 46] |  |  | 80 to 100% |  | 
CC(C)(C)C(O)(c1cncnc1)c1ccc(-c2ccc(C#N)cc2)cc1F (stereo not drawn) [Compound 17] | 80 to 100% | 80 to 100% |  | 80 to 100% | 80 to 100%
CC(C)(C)c1ccc(-c2ccc(C(O)(c3cncnc3)C(C)(C)C)cc2)cc1 (stereo not drawn) [Compound 33] |  |  | 80 to 100% |  | 
CC(C)(C)C(O)(c1ccc(-c2ccc(CC#N)cc2)cc1)c1cccnc1 (stereo not drawn) [Compound 59] |  |  | 80 to 100% |  | 
Cc1cc(-c2ccc(OC(F)F)cc2)ccc1C(O)(c1cncnc1)C(C)(C)C (stereo not drawn) [Compound 36] |  |  | 80 to 100% |  | 
CC(C)(C)C(O)(c1ccc(-c2ccc(OC(F)(F)F)cc2)cc1)c1cccnc1 (stereo not drawn) [Compound 54] |  |  | 80 to 100% |  | 
CC(C)(C)C(O)(c1ccc(-c2ccc(OCC(F)(F)F)cc2)cc1)c1cccnc1 (stereo not drawn) [Compound 57] |  |  | 80 to 100% |  | 
COc1cc(-c2ccc(C#N)cc2)ccc1C(O)(c1cncnc1)C(C)(C)C (stereo not drawn) [Compound 47] |  |  | 80 to 100% |  | 
Cc1cc(-c2ccc(C3(C#N)CC3)cc2)ccc1C(O)(c1cncnc1)C(C)(C)C (stereo not drawn) [Compound 38] |  |  | 80 to 100% |  | 
COc1cc(-c2ccc(OC(F)(F)F)cc2)ccc1C(O)(c1cncnc1)C(C)(C)C (stereo not drawn) [Compound 44] |  |  | 80 to 100% |  | 
CC(C)(C)C(O)(c1ccc(-c2ccc(C(F)(F)F)nc2)cc1)c1cncnc1 (stereo not drawn) [Compound 7] |  |  | 80 to 100% |  | 
